From PubChem BioAssay (NCI) come the findings set out here.

What all share (experiment): NCI-60 cell line screen, 48 h
The test system of assay [1] is K-562 leukemia.
Assay [2] deals with SF-268 CNS.
In assay [3] the test system is COLO 205 colon.
The test system of assay [4] is M14 melanoma.
Assay [5] relates to UO-31 renal.
Assay [6] relates to HCC-2998 colon.
Assay [7] concerns ACHN renal.
The subject of assay [8] is OVCAR-4 ovarian.
The test system of assay [9] is MALME-3M melanoma.

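All cell lines were grown in 96-well plates and treated with compound for 48 hours. The concentration for 50% growth inhibition is given as GI50. TGI: concentration producing complete growth inhibition.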 A value given as a limit tells only on which side of the number the result lay.

Consider `O=[N+]([O-])c1cc2no[n+]([O-])c2cc1N1CCCCC1`, for which the TGI worked out at 7.98 µM in assay [1]; 41.2 µM in assay [2]; 30.4 µM in assay [3]; 7.19 µM in assay [4]; 6.16 µM in [5]; 33.1 µM in assay [6]. The TGI in assay [7] turned out to be 7.21 µM; in assay [8] it was 8.37 µM.
As to `N#CC1=C(O)NC(O)=C(C#N)C1c1ccc(C2C(C#N)=C(O)NC(O)=C2C#N)cc1`, the TGI is above 100 µM in assay [1]; above 100 µM in assay [2]; 63.1 µM in assay [3]; above 100 µM in [4]; above 100 µM in assay [5]; above 100 µM in [6]. In addition, the TGI in [9], in assay [7] and in assay [8] was above 100 µM throughout.
Take `CC(=O)NC(C=O)C(O[C@H](C)C(=O)NC(C)C(=O)NC(CCC(N)=O)C(=O)OCc1ccccc1)C(O)C(O)COC(=O)CCNc1c2ccccc2nc2cccc([N+](=O)[O-])c12` (stereo partly drawn): the TGI is 9.62 µM in assay [1]; 5.11 µM in assay [2]; 2.74 µM in assay [3]; 4.58 µM in assay [4]; 35.9 µM in [5]; 2.94 µM in assay [6]. Further, the TGI in assay [9] stood at 4.67 µM; in assay [8] it was 25.3 µM.
Consider `NC(=O)NC1C(C(=O)O)N(Cc2ccccc2)C(=O)N1Cc1ccccc1` (stereo not drawn), for which the TGI in assay [1], in [2], in [3], in assay [4], in [5] and in assay [6] was above 100 µM throughout. Also, the TGI in assay [9], in assay [7] and in assay [8] was above 100 µM throughout.
In the case of `O=C1CCCCC12CCC/C2=N\O` (stereo not drawn), the TGI in [1], in [2], in [3], in assay [4], in [5] and in [6] was above 100 µM in each case. In addition, the TGI in [9], in assay [7] and in assay [8] was above 100 µM in each case.
As for `O=C(NCCCl)SCCO`, the TGI in [1], in assay [2], in assay [3], in assay [4], in assay [5] and in [6] was above 100 µM throughout. The TGI in [9], in assay [7] and in [8] was above 100 µM throughout.
For `O=C1OC(=O)C2C3C=CC(C12)C1C2C=CC2C31` (stereo not drawn), the TGI in [1], in assay [2], in [3], in assay [6], in assay [9] and in assay [7] was above 100 µM each time. The molecule also showed a TGI in [8] above 100 µM.
In the case of `CC([O-])=C1C(=O)c2ccccc2C1=O.CC([O-])=C1C(=O)c2ccccc2C1=O.CC[O-].CC[O-].[Ti+4]`, the GI50 in assay [1] is above 100 µM; in [2], above 100 µM; in assay [3], 91.7 µM; in [4] it was above 100 µM; in [5] it was above 100 µM; in assay [6], above 100 µM. For the same molecule, the GI50 in assay [9], in assay [7] and in assay [8] was above 100 µM in each case. The TGI in assay [1], in assay [2], in [3], in assay [4], in assay [5] and in assay [6] was above 100 µM each time. Also, the TGI in [9], in [7] and in [8] was above 100 µM each time.
For the molecule `O=c1[nH]cnc2c(COCCO)c[nH]c12`, the TGI in assay [1], in [2], in assay [3], in assay [4], in assay [5] and in assay [9] was above 100 µM in each case. Moreover, the TGI in assay [7] and in assay [8] was above 100 µM throughout.
Turning to `N#Cc1cccc(C=NC23CC4CC(CC(C4)C2)C3)c1`, the TGI in [1], in [2], in [3], in assay [4], in [5] and in [6] was above 100 µM in each case. In addition, the TGI in [9], in assay [7] and in assay [8] was above 100 µM each time.
`COCCOCCOCCOc1cccc2c1C(=O)c1cccc(OCCOCCOCCOC)c1C2=O`: the TGI in assay [1], in assay [3], in [4], in assay [6], in assay [7] and in [8] was above 100 µM throughout.
For the molecule `COC(=O)Cc1cc(=O)[nH]c2c1C(=O)CCC2`, the TGI in [1], in assay [2], in assay [4], in assay [5], in assay [6] and in [9] was above 100 µM in each case. Further, the TGI in assay [7] is above 100 µM.
As for `Cc1ccc(S(=O)(=O)N/N=C/C(C)C)cc1`, the TGI in [1], in [2], in [3], in assay [4], in assay [5] and in assay [6] was above 100 µM in each case. Also, the TGI in [9], in assay [7] and in [8] was above 100 µM each time.
As for `CCCCCCCCCCCc1c(O)c(=O)c2c(oc3c(=O)c(CCCCCCCCCCC)c(O)c(=O)c3n2-c2ccc(N(C)C)cc2)c1=O`, the TGI in [1] is above 100 µM; in assay [2], 58.1 µM; in assay [3] it was 38.1 µM; in assay [4], 32.8 µM; in assay [9], 37.9 µM; in [7] it was 42.8 µM. This molecule gave a TGI in assay [8] of 30.7 µM.
